Source: PubChem BioAssay (NCI)
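Five concentrations, 48 hours, 96-well plates. GI50 is the concentration that inhibits growth by half. TGI is the concentration that stops growth completely.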

Key:
Experiment in all cases: NCI-60 cell line screen, 48 h
SF-295 CNS = system: SF-295 CNS
MCF7 breast = system: MCF7 breast
HT29 colon = system: HT29 colon
NCI-H460 lung = system: NCI-H460 lung
A498 renal = system: A498 renal
A549 NSCLC = system: A549 NSCLC
NCI-H226 lung = system: NCI-H226 lung
SW-620 colon = system: SW-620 colon
SF-268 CNS = system: SF-268 CNS
MDA-MB-435 = system: MDA-MB-435
SK-MEL-28 melanoma = system: SK-MEL-28 melanoma
OVCAR-8 ovarian = system: OVCAR-8 ovarian
OVCAR-3 ovarian = system: OVCAR-3 ovarian
ACHN renal = system: ACHN renal
CCRF-CEM leukemia = system: CCRF-CEM leukemia
EKVX NSCLC = system: EKVX NSCLC
LOX IMVI melanoma = system: LOX IMVI melanoma
MDA-MB-231 breast = system: MDA-MB-231 breast
K-562 leukemia = system: K-562 leukemia
PC-3 prostate = system: PC-3 prostate
BT-549 breast = system: BT-549 breast
UACC-257 melanoma = system: UACC-257 melanoma
SK-OV-3 ovarian = system: SK-OV-3 ovarian
RPMI-8226 leukemia = system: RPMI-8226 leukemia
NCI-H23 lung = system: NCI-H23 lung
RXF 393 renal = system: RXF 393 renal
HCT-15 colon = system: HCT-15 colon
MOLT-4 leukemia = system: MOLT-4 leukemia
KM12 colon = system: KM12 colon
MDA-MB-468 breast = system: MDA-MB-468 breast
HCC-2998 colon = system: HCC-2998 colon
SK-MEL-2 melanoma = system: SK-MEL-2 melanoma
CAKI-1 renal = system: CAKI-1 renal
HS 578T breast = system: HS 578T breast
HOP-92 NSCLC = system: HOP-92 NSCLC
OVCAR-5 ovarian = system: OVCAR-5 ovarian
SF-539 CNS = system: SF-539 CNS
DU-145 prostate = system: DU-145 prostate
OVCAR-4 ovarian = system: OVCAR-4 ovarian
SN12C renal = system: SN12C renal
COLO 205 colon = system: COLO 205 colon
U251 CNS = system: U251 CNS
HL-60(TB) leukemia = system: HL-60(TB) leukemia
NCI/ADR-RES ovarian = system: NCI/ADR-RES ovarian
SK-MEL-5 melanoma = system: SK-MEL-5 melanoma
TK-10 renal = system: TK-10 renal
IGROV1 ovarian = system: IGROV1 ovarian
NCI-H522 lung = system: NCI-H522 lung
T-47D breast = system: T-47D breast
HCT-116 colon = system: HCT-116 colon
M14 melanoma = system: M14 melanoma
SR leukemia = system: SR leukemia
SNB-19 CNS = system: SNB-19 CNS
786-0 renal = system: 786-0 renal
HOP-62 NSCLC = system: HOP-62 NSCLC
UACC-62 melanoma = system: UACC-62 melanoma
MALME-3M melanoma = system: MALME-3M melanoma
SNB-75 CNS = system: SNB-75 CNS
UO-31 renal = system: UO-31 renal

Compound: C=C1CCC2C3(C)COC(c4cc(F)cc(F)c4)OC3CCC2(C)C1C/C=C1/C(=O)OCC1O (stereo not drawn)
- GI50 (SF-295 CNS): 1560 nM
- TGI (SF-295 CNS): 2980 nM
- GI50 (MCF7 breast): 1180 nM
- TGI (MCF7 breast): 2600 nM
- GI50 (HT29 colon): 1790 nM
- TGI (HT29 colon): 3610 nM
- GI50 (NCI-H460 lung): 1620 nM
- TGI (NCI-H460 lung): 3200 nM
- GI50 (A498 renal): 3410 nM
- TGI (A498 renal): 15600 nM
- GI50 (A549 NSCLC): 2550 nM
- TGI (A549 NSCLC): 8390 nM
- GI50 (NCI-H226 lung): 1730 nM
- TGI (NCI-H226 lung): 3420 nM
- GI50 (SW-620 colon): 1350 nM
- TGI (SW-620 colon): 2810 nM
- GI50 (SF-268 CNS): 1840 nM
- TGI (SF-268 CNS): 3690 nM
- GI50 (MDA-MB-435): 1550 nM
- TGI (MDA-MB-435): 3100 nM
- GI50 (SK-MEL-28 melanoma): 1770 nM
- TGI (SK-MEL-28 melanoma): 3210 nM
- GI50 (OVCAR-8 ovarian): 1770 nM
- TGI (OVCAR-8 ovarian): 4520 nM
- GI50 (OVCAR-3 ovarian): 1620 nM
- TGI (OVCAR-3 ovarian): 3120 nM
- GI50 (ACHN renal): 1700 nM
- TGI (ACHN renal): 3070 nM
- GI50 (CCRF-CEM leukemia): 649 nM
- TGI (CCRF-CEM leukemia): 4190 nM
- GI50 (EKVX NSCLC): 2500 nM
- TGI (EKVX NSCLC): 6500 nM
- GI50 (LOX IMVI melanoma): 1480 nM
- TGI (LOX IMVI melanoma): 2790 nM
- GI50 (MDA-MB-231 breast): 1670 nM
- TGI (MDA-MB-231 breast): 3250 nM
- GI50 (K-562 leukemia): 1980 nM
- TGI (K-562 leukemia): 6170 nM
- GI50 (PC-3 prostate): 1750 nM
- TGI (PC-3 prostate): 3600 nM
- GI50 (BT-549 breast): 1410 nM
- TGI (BT-549 breast): 2730 nM
- GI50 (UACC-257 melanoma): 1730 nM
- TGI (UACC-257 melanoma): 3440 nM
- GI50 (SK-OV-3 ovarian): 9790 nM
- TGI (SK-OV-3 ovarian): 22000 nM
- GI50 (RPMI-8226 leukemia): 2050 nM
- TGI (RPMI-8226 leukemia): 5450 nM
- GI50 (NCI-H23 lung): 1880 nM
- TGI (NCI-H23 lung): 3750 nM
- GI50 (RXF 393 renal): 1730 nM
- TGI (RXF 393 renal): 3230 nM
- GI50 (HCT-15 colon): 1440 nM
- TGI (HCT-15 colon): 2980 nM
- GI50 (MOLT-4 leukemia): 2580 nM
- TGI (MOLT-4 leukemia): 7520 nM
- GI50 (KM12 colon): 1900 nM
- TGI (KM12 colon): 3860 nM
- GI50 (MDA-MB-468 breast): 1730 nM
- TGI (MDA-MB-468 breast): 3160 nM
- GI50 (HCC-2998 colon): 1660 nM
- TGI (HCC-2998 colon): 3160 nM
- GI50 (SK-MEL-2 melanoma): 1790 nM
- TGI (SK-MEL-2 melanoma): 3380 nM
- GI50 (CAKI-1 renal): 1620 nM
- TGI (CAKI-1 renal): 3010 nM
- GI50 (HS 578T breast): 2110 nM
- TGI (HS 578T breast): 5610 nM
- GI50 (HOP-92 NSCLC): 1770 nM
- TGI (HOP-92 NSCLC): 3820 nM
- GI50 (OVCAR-5 ovarian): 1590 nM
- TGI (OVCAR-5 ovarian): 3210 nM
- GI50 (SF-539 CNS): 1660 nM
- TGI (SF-539 CNS): 3020 nM
- GI50 (DU-145 prostate): 2210 nM
- TGI (DU-145 prostate): 5110 nM
- GI50 (OVCAR-4 ovarian): 1850 nM
- TGI (OVCAR-4 ovarian): 4090 nM
- GI50 (SN12C renal): 1520 nM
- TGI (SN12C renal): 2890 nM
- GI50 (COLO 205 colon): 1860 nM
- TGI (COLO 205 colon): 3320 nM
- GI50 (U251 CNS): 1580 nM
- TGI (U251 CNS): 3030 nM
- GI50 (HL-60(TB) leukemia): 1350 nM
- TGI (HL-60(TB) leukemia): 3590 nM
- GI50 (NCI/ADR-RES ovarian): 1820 nM
- TGI (NCI/ADR-RES ovarian): 3670 nM
- GI50 (SK-MEL-5 melanoma): 1750 nM
- TGI (SK-MEL-5 melanoma): 3210 nM
- GI50 (TK-10 renal): 1680 nM
- TGI (TK-10 renal): 3250 nM
- GI50 (IGROV1 ovarian): 1810 nM
- TGI (IGROV1 ovarian): 3530 nM
- GI50 (NCI-H522 lung): 1640 nM
- TGI (NCI-H522 lung): 3230 nM
- GI50 (T-47D breast): 1430 nM
- TGI (T-47D breast): 3100 nM
- GI50 (HCT-116 colon): 1430 nM
- TGI (HCT-116 colon): 2930 nM
- GI50 (M14 melanoma): 1740 nM
- TGI (M14 melanoma): 3390 nM
- GI50 (SR leukemia): 2080 nM
- TGI (SR leukemia): 5230 nM
- GI50 (SNB-19 CNS): 1730 nM
- TGI (SNB-19 CNS): 3430 nM
- GI50 (786-0 renal): 1730 nM
- TGI (786-0 renal): 3130 nM
- GI50 (HOP-62 NSCLC): 1780 nM
- TGI (HOP-62 NSCLC): 3440 nM
- GI50 (UACC-62 melanoma): 1650 nM
- TGI (UACC-62 melanoma): 3290 nM
- GI50 (MALME-3M melanoma): 1690 nM
- TGI (MALME-3M melanoma): 3150 nM
- GI50 (SNB-75 CNS): 1140 nM
- TGI (SNB-75 CNS): 2400 nM
- GI50 (UO-31 renal): 1410 nM
- TGI (UO-31 renal): 2700 nM
